Source: patent US9781938B2, “Method for eliciting plant immune responses by seed priming of heat-treated Bacillus culture solution” (KOREA RESEARCH INSTITUTE OF BIOSCIENCE AND BIOTECHNOLOGY, priority 2012, dated 2017)

How the values were obtained:
Format in all cases: in vivo
LOX gene = test: qRT-PCR expression of plant disease resistance-related gene LOX in cucumber leaf after pathogen inoculation; details: BTH treatment group; time not stated
Experimental: (§1) In order to measure an expression amount of a plant disease resistance-related gene, pathogen was inoculated to a cucumber, and sampling was made 0, 3 or 24 hours later. Total RNA was isolated from the sampled cucumber leaf by using RNeasy Plus Mini Kit (50). cDNA was synthesized from 2 μg of the RNA by using an oligo-dT primer and MMLV-RT (Moloney murine leukemia virus reverse transcriptase, Enzynomics, KOREA). cDNA was then used for qRT-PCR (quantitative Reverse Transcriptase Polymerase Chain Reaction) based on Chromo4 Real Time PCR system (BIO-RAD) by using each primer for the genes of LOX, PR2 and ETR that are known to be related to resistance to diseases. LOX primer is as follows; forward direction: 5′-[…]-3′ (SEQ ID NO: 1) and reverse direction: 5′-[…]-3′ (SEQ ID NO: 2), PR2 primer is as follows; forward direction: 5′-[…]-3′ (SEQ ID NO: 3) and reverse direction: 5′-[…]-3′ (SEQ ID NO: 4), and ETR primer is as follows; forward direction: 5′-[…]-3′ (SEQ ID NO: 5) and reverse direction: 5′-GCCAAAGACCACTGCCACA-3′ (SEQ ID NO: 6).

cucumber = test: Establishment of seed priming conditions using BTH: stem weight to see growth inhibition
Experimental: (§2) Regarding the priming of a cucumber seed, to establish conditions for seed treatment at which induced systemic resistance against is induced in a plant without inhibiting plant growth, a cucumber seed was treated with BTH (benzothiadiazole), i.e., a potent substance for eliciting resistance, and it was cultivated in a rectangular culture solution dish (125×125 mm) and a pot for determination. The cucumber seed (Bakbong Dadagi, manufactured by Nongwoo Bio, Korea) was subjected to surface sterilization for 5 minutes using 5% NaOCl and, after rinsing 5 times with sterilized water, died on a filter paper. The sterilized seed was soaked for 0, 6, 12, or 18 hours in BTH solution each at 0.1 μM, 10 μM, or 1 mM. 0 Hour means that the seed was dried immediately after soaking. The soaked seed was dried for 12 hours on a culture dish overlaid with a sterilized filter paper. The seed after priming was sown in a pot filled with soil for horticulture (Punong Co., Ltd., Korea) and also in a rectangular culture dish containing distilled water-agar medium (Water agar; WA, plant agar (8 g/L)). […] Seven days later, any symptom of disease was determined, and the degree of symptom was measured with scale of from 1 to 5. […] Stem weight was measured simultaneously with determination of the degree of symptom to see if there is any growth inhibition.

[1] = test system: Psuedomonas syringae pv. lachrymans; test: Establishment of seed priming conditions using BTH: induced systemic resistance in cucumber (culture dish and pot), degree of symptom; details: cucumber seed soaked in 1 mM BTH for 12 hours and 18 hours; in vitro and in planta
Experimental: as §2

PR2 gene = test: qRT-PCR expression of plant disease resistance-related gene PR2 in cucumber leaf after pathogen inoculation; details: after 24 hours
Experimental: as §1

CSC(=O)c1cccc2nnsc12 [BTH, benzo(1,2,3)-thiadiazole-7-carbothioic acid S-methyl ester]
expression level of LOX gene versus negative control (LOX gene): close to that of a negative control
growth inhibition (stem weight) (cucumber; seed soaked in 1 mM BTH for 12 hours): no growth inhibition
growth inhibition (stem weight) (cucumber; seed treated with 1 mM BTH for 18 hours, compared to sterilized water control): growth inhibition is shown with a statistic significance
eliciting induced systemic resistance [1]: most effective
PR2 expression level (PR2 gene): 1.7
PR2 expression level relative to water (0.4) (PR2 gene; vs negative control water): 4.3 times
